Results from ChEMBL document CHEMBL5212743, “Selectivity Literature for EUbOPEN Chemogenomics Library wave 3” (2023).
Blank lines part the entries; values can stand above or below the molecule they belong to.

Key:
[1] = tested on: Phosphatidylinositol 4,5-bisphosphate 3-kinase catalytic subunit alpha isoform (Homo sapiens), P42336 [E542K]; assay: (§1) Selectivity interaction (KinomeScan (DiscoverX)) EUB0000251b PIK3CA; conditions: at 1 µM
[2] = tested on: Phosphatidylinositol 4,5-bisphosphate 3-kinase catalytic subunit alpha isoform (Homo sapiens), P42336 [Q546K]; assay: as §1; conditions: at 1 µM
Histamine H1 receptor = Histamine H1 receptor (Homo sapiens, UniProt P35367); assay: Selectivity interaction (GPCR panel (PDSP screen)) EUB0000251b HRH1; conditions: at 10 µM
[3] = biological target: T1, Sigma intracellular receptor 2 (Homo sapiens, UniProt Q5BJF2); assay: Selectivity interaction (GPCR panel (PDSP screen)) EUB0000251b TMEM97; conditions: at 10 µM
T1 sequence (Q5BJF2 whole entry): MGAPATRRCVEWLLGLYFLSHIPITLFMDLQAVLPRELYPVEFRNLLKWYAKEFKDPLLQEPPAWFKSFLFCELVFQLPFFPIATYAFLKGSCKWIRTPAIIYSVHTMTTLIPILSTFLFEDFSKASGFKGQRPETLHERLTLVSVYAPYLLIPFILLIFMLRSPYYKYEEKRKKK

[4] = biological target: Prostaglandin E2 receptor EP4 subtype (Homo sapiens, UniProt P35408); assay: Selectivity interaction (Eurofins-Panlabs radioligand binding assay ) EUB0000293b PTGER4; conditions: at 10 µM
Prostaglandin E2 receptor EP4 subtype, sequence (P35408 whole entry): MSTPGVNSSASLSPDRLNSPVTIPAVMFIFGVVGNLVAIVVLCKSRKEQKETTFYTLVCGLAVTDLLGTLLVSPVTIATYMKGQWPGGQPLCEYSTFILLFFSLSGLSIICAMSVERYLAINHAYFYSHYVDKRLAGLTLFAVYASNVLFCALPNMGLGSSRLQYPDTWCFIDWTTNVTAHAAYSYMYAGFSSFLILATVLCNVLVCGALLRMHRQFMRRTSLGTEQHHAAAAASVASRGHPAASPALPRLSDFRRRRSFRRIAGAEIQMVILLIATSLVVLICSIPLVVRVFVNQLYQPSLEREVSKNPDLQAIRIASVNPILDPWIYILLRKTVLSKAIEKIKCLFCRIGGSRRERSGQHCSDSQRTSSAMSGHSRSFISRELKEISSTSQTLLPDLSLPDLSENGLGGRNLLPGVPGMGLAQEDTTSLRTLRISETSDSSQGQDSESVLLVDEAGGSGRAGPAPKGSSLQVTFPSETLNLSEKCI

[5] = biological target: 5-hydroxytryptamine receptor 3A (Homo sapiens) (UniProt P46098); assay: Selectivity interaction (GPCR panel (PDSP screen)) EUB0000293b HTR3A; conditions: at 10 µM
[6] = biological target: Kappa-type opioid receptor (Homo sapiens, UniProt P41145); assay: Selectivity interaction (Lead profiling screen (Eurofins, panel of GPCRs, transporters, nuclear receptors, and other enzymes)) EUB0000320b OPRK1; conditions: at 10 µM
Kappa-type opioid receptor, sequence (P41145 whole entry): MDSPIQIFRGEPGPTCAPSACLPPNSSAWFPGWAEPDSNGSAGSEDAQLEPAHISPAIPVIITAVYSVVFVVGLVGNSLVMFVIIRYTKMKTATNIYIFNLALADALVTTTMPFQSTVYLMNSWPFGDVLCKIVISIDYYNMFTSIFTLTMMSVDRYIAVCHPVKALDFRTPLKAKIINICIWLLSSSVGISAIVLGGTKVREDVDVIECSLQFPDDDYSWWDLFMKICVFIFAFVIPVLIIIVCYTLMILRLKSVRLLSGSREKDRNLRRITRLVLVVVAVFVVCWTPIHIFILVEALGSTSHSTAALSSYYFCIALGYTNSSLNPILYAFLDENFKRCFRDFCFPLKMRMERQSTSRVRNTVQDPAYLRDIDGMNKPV

[7] = biological target: T2, Alpha-1A adrenergic receptor (Homo sapiens) (UniProt P35348); assay: Selectivity interaction (Lead profiling screen (Eurofins, panel of GPCRs, transporters, nuclear receptors, and other enzymes)) EUB0000320b ADRA1A; conditions: at 10 µM
T2 sequence (whole entry): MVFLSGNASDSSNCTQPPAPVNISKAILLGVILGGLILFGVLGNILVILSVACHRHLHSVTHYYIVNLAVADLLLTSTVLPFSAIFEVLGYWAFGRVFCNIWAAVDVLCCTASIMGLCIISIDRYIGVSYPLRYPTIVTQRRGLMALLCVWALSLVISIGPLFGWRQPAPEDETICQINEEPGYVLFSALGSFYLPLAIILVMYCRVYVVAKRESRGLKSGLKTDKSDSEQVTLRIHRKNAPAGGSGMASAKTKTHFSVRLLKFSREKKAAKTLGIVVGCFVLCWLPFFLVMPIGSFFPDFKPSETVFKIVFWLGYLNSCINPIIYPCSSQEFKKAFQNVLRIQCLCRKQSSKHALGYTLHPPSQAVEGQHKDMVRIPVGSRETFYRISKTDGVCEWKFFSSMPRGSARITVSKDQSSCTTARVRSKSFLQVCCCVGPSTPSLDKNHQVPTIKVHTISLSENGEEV

[8] = biological target: 5-hydroxytryptamine receptor 2C (Homo sapiens) (UniProt P28335); assay: Selectivity interaction (Lead profiling screen (Eurofins, panel of GPCRs, transporters, nuclear receptors, and other enzymes)) EUB0000320b HTR2C; conditions: at 10 µM
5-hydroxytryptamine receptor 2C (Homo sapiens), sequence (P28335 whole entry): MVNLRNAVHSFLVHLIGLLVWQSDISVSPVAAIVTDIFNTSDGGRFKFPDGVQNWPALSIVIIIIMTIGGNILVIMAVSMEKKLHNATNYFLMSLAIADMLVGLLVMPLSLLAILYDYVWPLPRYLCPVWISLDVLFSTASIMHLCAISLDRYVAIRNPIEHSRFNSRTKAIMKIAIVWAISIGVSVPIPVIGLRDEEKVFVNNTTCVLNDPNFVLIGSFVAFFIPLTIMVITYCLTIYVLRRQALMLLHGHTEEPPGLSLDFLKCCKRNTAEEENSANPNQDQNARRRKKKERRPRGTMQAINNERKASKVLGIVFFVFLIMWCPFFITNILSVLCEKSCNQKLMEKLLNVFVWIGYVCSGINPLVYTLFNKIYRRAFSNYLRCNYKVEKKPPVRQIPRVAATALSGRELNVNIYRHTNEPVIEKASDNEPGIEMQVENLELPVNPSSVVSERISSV

[9] = tested on: Receptor-type tyrosine-protein kinase FLT3 (Homo sapiens), P36888 [UNDEFINED MUTATION]; assay: Selectivity interaction (KinomeScan (DiscoverX)) EUB0000320b FLT3; conditions: at 1 µM
[10] = biological target: T3, Myosin-IIIb (Homo sapiens) (UniProt Q8WXR4); assay: Selectivity interaction (KinomeScan (DiscoverX)) EUB0000320b MYO3B; conditions: at 1 µM
T3 sequence (whole entry): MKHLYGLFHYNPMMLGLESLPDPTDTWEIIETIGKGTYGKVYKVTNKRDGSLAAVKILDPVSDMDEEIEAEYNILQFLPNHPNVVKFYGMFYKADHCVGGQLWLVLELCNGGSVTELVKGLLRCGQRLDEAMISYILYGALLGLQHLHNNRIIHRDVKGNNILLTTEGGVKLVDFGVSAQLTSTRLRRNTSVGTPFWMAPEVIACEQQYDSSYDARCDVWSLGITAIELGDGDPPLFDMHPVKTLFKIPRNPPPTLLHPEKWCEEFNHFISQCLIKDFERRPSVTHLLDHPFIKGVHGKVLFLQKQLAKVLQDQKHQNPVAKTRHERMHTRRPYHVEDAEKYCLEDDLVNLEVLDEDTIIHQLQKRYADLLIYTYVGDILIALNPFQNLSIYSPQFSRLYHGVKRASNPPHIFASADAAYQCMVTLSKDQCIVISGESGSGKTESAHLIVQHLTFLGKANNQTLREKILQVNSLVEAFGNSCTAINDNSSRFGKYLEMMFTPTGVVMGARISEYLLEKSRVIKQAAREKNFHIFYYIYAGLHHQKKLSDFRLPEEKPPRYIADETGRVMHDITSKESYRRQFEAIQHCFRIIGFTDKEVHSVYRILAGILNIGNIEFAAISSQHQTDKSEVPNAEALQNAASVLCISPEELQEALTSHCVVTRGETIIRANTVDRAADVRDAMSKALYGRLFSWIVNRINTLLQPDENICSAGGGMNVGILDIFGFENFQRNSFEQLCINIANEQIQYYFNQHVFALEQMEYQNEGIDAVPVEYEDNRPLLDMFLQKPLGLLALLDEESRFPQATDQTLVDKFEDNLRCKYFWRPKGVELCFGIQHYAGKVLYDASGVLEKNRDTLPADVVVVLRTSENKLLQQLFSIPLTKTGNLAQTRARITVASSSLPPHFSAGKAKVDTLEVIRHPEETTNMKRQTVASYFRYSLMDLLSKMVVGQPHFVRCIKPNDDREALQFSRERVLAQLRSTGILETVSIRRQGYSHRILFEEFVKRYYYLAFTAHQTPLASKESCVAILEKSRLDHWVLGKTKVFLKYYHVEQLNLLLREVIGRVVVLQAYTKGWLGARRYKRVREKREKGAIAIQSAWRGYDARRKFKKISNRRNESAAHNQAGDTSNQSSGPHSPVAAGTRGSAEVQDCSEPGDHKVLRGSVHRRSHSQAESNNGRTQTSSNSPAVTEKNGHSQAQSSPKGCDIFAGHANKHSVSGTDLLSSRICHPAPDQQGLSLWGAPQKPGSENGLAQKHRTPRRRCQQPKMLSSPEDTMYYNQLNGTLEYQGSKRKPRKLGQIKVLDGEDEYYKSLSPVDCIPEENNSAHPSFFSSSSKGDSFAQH

[11] = biological target: T4, Cytoplasmic tyrosine-protein kinase BMX (Homo sapiens) (UniProt P51813); assay: Selectivity interaction (KinomeScan (DiscoverX)) EUB0000320b BMX; conditions: at 1 µM
T4 sequence (whole entry): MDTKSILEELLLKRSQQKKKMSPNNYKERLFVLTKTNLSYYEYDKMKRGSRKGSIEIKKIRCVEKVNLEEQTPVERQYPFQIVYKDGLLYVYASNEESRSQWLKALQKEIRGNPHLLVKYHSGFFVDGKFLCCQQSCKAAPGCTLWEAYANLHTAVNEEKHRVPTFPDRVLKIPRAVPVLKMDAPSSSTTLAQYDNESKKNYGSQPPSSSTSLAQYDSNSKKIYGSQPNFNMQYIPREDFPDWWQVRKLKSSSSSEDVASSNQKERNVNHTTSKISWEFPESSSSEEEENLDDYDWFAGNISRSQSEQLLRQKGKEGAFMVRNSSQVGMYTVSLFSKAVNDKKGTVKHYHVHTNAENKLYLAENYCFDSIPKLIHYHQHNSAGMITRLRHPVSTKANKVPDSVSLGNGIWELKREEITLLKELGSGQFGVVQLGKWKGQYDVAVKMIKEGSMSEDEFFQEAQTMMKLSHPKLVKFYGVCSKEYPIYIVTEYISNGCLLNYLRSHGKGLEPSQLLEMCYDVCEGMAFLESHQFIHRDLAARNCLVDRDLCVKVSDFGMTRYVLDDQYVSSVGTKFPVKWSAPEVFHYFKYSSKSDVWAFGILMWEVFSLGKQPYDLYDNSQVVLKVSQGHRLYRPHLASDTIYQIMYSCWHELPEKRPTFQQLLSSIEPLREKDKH

[12] = biological target: Casein kinase II subunit alpha' (Homo sapiens) (UniProt P19784); assay: Selectivity interaction (Kinase panel (Eurofins)) EUB0000320b CSNK2A2; conditions: at 1 µM
[13] = biological target: 5-hydroxytryptamine receptor 2B (Homo sapiens, UniProt P41595); assay: Selectivity interaction (Lead profiling screen (Eurofins, panel of GPCRs, transporters, nuclear receptors, and other enzymes)) EUB0000320b HTR2B; conditions: at 10 µM
5-hydroxytryptamine receptor 2B, sequence (P41595 whole entry): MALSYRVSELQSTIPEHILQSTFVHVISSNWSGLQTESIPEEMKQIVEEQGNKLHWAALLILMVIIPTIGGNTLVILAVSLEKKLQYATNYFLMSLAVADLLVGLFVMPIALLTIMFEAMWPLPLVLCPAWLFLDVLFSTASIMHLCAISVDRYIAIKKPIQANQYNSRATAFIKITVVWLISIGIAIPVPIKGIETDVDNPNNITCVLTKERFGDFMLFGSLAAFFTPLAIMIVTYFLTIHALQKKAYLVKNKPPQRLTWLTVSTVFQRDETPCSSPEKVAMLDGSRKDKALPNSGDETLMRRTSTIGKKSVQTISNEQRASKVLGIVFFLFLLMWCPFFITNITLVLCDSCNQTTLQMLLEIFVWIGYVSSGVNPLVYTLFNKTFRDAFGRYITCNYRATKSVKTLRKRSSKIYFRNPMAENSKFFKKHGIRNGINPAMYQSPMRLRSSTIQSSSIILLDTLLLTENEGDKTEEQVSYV

[14] = biological target: 5-hydroxytryptamine receptor 2A (Homo sapiens, UniProt P28223); assay: Selectivity interaction (Lead profiling screen (Eurofins, panel of GPCRs, transporters, nuclear receptors, and other enzymes)) EUB0000320b HTR2A; conditions: at 10 µM
[15] = biological target: Serine/threonine-protein kinase 33 (Homo sapiens, UniProt Q9BYT3); assay: Selectivity interaction (KinomeScan (DiscoverX)) EUB0000320b STK33; conditions: at 1 µM
Serine/threonine-protein kinase 33, sequence (Q9BYT3 whole entry, looked up): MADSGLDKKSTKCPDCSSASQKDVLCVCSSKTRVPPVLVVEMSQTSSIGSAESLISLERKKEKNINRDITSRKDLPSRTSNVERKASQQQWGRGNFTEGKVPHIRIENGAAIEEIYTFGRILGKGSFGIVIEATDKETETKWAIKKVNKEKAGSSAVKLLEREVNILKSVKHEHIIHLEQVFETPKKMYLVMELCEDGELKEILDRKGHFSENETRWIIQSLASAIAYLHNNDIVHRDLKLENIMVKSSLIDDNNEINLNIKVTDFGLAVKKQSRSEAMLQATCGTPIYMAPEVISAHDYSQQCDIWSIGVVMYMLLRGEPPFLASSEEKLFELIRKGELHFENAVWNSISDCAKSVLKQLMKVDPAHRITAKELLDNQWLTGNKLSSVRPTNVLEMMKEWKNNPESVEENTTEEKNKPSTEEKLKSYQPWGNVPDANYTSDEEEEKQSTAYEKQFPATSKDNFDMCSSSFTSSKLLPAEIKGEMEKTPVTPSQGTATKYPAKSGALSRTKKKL

[16] = biological target: Serine/threonine-protein kinase ICK (Homo sapiens) (UniProt Q9UPZ9); assay: Selectivity interaction (KinomeScan (DiscoverX)) EUB0000333a ICK; conditions: at 1 µM
[17] = biological target: T1, Sigma intracellular receptor 2; assay: Selectivity interaction (GPCR panel (PDSP screen)) EUB0000333a TMEM97; conditions: at 10 µM
[18] = biological target: eIF-2-alpha kinase GCN2 (Homo sapiens) (UniProt Q9P2K8); assay: Selectivity interaction (KinomeScan (DiscoverX)) EUB0000333a EIF2AK4; conditions: at 1 µM
eIF-2-alpha kinase GCN2 (Homo sapiens), sequence (Q9P2K8 whole entry): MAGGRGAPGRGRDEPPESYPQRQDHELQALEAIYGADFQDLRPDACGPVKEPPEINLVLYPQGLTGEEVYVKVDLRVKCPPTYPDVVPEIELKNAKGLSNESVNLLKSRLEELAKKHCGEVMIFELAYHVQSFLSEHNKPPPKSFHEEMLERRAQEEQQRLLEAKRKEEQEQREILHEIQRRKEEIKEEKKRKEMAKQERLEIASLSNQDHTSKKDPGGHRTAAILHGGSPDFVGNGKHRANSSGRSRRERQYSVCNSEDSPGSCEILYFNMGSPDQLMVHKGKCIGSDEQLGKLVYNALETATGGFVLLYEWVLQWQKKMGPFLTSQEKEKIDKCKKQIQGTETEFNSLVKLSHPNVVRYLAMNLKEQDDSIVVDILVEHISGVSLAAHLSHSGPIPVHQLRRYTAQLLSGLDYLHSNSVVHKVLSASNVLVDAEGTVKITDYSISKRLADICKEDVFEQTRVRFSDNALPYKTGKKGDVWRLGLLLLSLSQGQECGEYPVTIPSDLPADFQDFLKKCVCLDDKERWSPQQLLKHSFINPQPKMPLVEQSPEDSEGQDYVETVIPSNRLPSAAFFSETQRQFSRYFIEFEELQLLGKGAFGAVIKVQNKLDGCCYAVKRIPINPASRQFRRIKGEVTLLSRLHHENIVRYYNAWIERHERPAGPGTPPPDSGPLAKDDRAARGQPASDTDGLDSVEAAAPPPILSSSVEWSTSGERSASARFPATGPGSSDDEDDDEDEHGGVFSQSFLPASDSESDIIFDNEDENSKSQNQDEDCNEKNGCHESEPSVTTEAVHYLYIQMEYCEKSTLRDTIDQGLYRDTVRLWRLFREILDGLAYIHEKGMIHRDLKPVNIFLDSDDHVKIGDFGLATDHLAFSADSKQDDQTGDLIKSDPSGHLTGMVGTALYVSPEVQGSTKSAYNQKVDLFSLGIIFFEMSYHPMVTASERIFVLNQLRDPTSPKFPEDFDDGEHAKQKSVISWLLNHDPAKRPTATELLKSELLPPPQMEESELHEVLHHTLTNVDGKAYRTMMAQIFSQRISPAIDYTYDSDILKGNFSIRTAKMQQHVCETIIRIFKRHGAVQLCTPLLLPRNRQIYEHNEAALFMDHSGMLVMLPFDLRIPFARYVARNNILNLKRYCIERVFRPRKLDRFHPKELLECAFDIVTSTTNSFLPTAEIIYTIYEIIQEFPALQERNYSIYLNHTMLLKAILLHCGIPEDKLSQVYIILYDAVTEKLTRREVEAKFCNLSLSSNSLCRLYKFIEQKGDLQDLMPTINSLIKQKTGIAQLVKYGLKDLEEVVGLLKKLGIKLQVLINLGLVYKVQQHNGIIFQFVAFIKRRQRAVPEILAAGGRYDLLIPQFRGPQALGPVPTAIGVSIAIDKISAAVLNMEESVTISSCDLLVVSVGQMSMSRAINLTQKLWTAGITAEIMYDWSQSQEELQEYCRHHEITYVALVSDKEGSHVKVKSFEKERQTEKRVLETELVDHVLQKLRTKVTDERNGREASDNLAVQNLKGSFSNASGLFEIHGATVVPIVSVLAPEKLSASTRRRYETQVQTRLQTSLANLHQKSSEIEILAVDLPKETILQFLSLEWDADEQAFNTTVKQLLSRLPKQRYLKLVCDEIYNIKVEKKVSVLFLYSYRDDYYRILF

[19] = biological target: P2Y purinoceptor 2 (Homo sapiens) (UniProt P41231); assay: Selectivity interaction (GPCR panel (Eurofins-Cerep)) EUB0000333a P2RY2; conditions: at 10 µM
P2Y purinoceptor 2 (Homo sapiens), sequence (P41231 whole entry): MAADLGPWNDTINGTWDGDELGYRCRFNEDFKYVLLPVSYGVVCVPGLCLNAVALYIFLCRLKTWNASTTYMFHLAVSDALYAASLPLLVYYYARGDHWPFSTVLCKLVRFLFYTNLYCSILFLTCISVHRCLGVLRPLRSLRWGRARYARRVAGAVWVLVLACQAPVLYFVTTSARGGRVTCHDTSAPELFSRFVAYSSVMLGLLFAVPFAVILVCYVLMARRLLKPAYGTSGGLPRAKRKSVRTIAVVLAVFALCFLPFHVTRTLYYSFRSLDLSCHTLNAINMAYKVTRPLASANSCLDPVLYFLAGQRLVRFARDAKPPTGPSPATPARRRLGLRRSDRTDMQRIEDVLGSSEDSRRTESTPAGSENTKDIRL

[20] = biological target: T5, Muscarinic acetylcholine receptor M2 (Homo sapiens) (UniProt P08172); assay: Selectivity interaction (GPCR panel (PDSP screen)) EUB0000333a CHRM2; conditions: at 10 µM
T5 sequence (whole entry): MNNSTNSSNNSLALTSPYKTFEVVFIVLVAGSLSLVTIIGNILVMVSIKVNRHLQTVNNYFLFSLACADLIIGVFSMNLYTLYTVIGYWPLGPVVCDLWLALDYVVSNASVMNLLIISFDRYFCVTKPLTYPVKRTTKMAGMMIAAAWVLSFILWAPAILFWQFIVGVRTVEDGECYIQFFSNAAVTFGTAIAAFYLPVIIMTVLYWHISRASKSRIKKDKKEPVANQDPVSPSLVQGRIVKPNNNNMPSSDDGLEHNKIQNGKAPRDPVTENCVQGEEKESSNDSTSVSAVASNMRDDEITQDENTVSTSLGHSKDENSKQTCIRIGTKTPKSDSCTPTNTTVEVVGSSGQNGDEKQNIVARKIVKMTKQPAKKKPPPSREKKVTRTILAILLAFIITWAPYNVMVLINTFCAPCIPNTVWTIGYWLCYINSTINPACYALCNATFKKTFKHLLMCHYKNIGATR

[21] = biological target: Serine/threonine-protein kinase SBK1 (Homo sapiens) (UniProt Q52WX2); assay: Selectivity interaction (KinomeScan (DiscoverX)) EUB0000708a SBK1; conditions: at 1 µM
Serine/threonine-protein kinase SBK1 (Homo sapiens), sequence (Q52WX2 whole entry): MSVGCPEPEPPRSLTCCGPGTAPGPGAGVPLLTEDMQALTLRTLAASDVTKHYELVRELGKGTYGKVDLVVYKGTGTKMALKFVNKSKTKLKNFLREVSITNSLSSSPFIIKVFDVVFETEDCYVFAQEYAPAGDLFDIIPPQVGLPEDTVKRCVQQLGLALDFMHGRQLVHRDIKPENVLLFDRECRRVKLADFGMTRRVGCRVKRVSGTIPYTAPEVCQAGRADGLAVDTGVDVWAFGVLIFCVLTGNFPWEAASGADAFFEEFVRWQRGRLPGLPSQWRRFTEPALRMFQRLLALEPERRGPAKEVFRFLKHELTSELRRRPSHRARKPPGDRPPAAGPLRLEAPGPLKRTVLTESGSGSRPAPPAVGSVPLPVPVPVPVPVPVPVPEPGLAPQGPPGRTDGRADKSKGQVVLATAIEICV

[22] = biological target: Serine/threonine-protein kinase ULK3 (Homo sapiens) (UniProt Q6PHR2); assay: Selectivity interaction (KinomeScan (DiscoverX)) EUB0000708a ULK3; conditions: at 1 µM
[23] = biological target: 5-hydroxytryptamine receptor 2C (Homo sapiens) (UniProt P28335); assay: Selectivity interaction (GPCR panel (PDSP screen)) EUB0000737a HTR2C; conditions: at 10 µM

Structure (SMILES): Cc1c(NC(=O)c2cc(C(N)=O)nc3cc(F)ccc23)c(C(F)(F)F)nn1Cc1ccc(C(C)(C)C)cc1
% of control [1]: 43% | % of control [2]: 32% | % of inhibition (Histamine H1 receptor): 46% | % of inhibition [3]: 41%

Structure (SMILES): CNCc1ccccc1-c1csc([C@@H](C)Nc2nc(C)nc3cc(OC)c(OC)cc23)c1
% of inhibition [6]: 105% | % of inhibition [7]: 106% | % of inhibition [8]: 104% | % of control [9]: 48% | % of control [10]: 47% | % of control [11]: 49% | % of control [12]: 67% | % of inhibition [13]: 100% | % of inhibition [14]: 110% | % of control [15]: 45%

Structure (SMILES): Cc1noc([C@H]2C[C@@H](c3ccc(C(F)(F)F)cc3)CN(C(=O)N3CCS(=O)(=O)C3)C2)n1
% of control [16]: 62% | inhibition [17]: 42% | % of control [18]: 28% | inhibition [19]: 29% | inhibition [20]: 39%

Structure (SMILES): Cc1nc(C2CCN(C(=O)c3ccc(OC(F)(F)F)cc3N)CC2)c2ncc(N3CCN(C)CC3)cc2n1
% of control [21]: 40% | % of control [22]: 46%

Further lines, results first:

% of inhibition [4]: 19% | % of control [5]: 33%
Structure (SMILES): CC1=C(C#N)C(c2ccc3[nH]nc(C)c3c2)C(C#N)=C(C)N1

% of inhibition [23]: 29%
Structure (SMILES): CC(=O)C1=C(C)N(c2cccc(C(F)(F)F)c2)C(=O)N[C@H]1c1ccc(C#N)nc1
